In patent US20200138892A1, “ANTI-DIABETIC ACTIVITY OF NEEM EXTRACT AND SYNERGISTIC COMBINATIONS OF UROLITHINS A AND B” (Natreon, Inc., priority 2018, published 2020):
Marks after values point to notes of the source that are not given here.

Legend:
Assay type in all cases: in vivo
[1] = tested on: streptozotocin-induced diabetic mice; assay: Fasting blood glucose in streptozotocin-induced diabetic mice (Study 2); conditions: for Fasting blood glucose: 10 mg/kg body weight orally; for Effect on STZ-induced increased sugar level (FBG), words: 10 mg/kg orally for 1 month, p<0.001 vs STZ
Description: Body weight, food intake, water intake, and fasting blood glucose (blood was collected following 12 hours fasting) were measured pre-induction of diabetes. Diabetes was induced by administering streptozotocin (50 mg/kg, body weight) in sodium citrate buffer, pH 4.5, intraperitoneally. Five days after streptozotocin administration fasting blood glucose was estimated (following 12 hours of fasting). Mice having blood glucose level 250±20 mg % was considered for the following study. The male and female mice were divided into the following four groups (n=8):
Following streptozotocin-induced hyperglycemia, treatment regimen was carried out for 1 month. 3-OH-DBP (Urolithin B) and 3,8-(OH)2-DBP (Urolithin A) each was separately suspended in 0.3% CMC and administered at a dose of 10 mg/kg body weight orally for 1 month. During the 1-month treatment, body weight and food and water intake were monitored at regular intervals. FBG (following 12 hours of fasting) was estimated twice at 15-day intervals. The results were expressed in terms of mean±SEM (n=8). The data were subjected to one-way ANOVA followed by Tukey's test using GraphPad Prism 4.0 software to establish statistical significance (*p<0.05, **p<0.01, ***p<0.001; ^# p<0.05, ^## p<0.01, ^### p<0.001).

[2] = tested on: streptozotocin-induced diabetic mice; assay: HbA1C level in streptozotocin-induced diabetic mice (Study 1); conditions: for HbA1C level: 250 mg/kg b.w. orally
Description: (§1) Body weight, food intake, water intake, and fasting basal blood glucose level were measured before induction on diabetes. Diabetes was induced by single administration of streptozotocin (65 mg/kg body weight) in sodium citrate buffer, pH 4.5, intraperitoneally. Five days after streptozotocin administration, fasting blood glucose level was estimated. Mice having blood glucose levels of 230±20 mg % were considered for the study. The male and female mice each were divided into the following groups:
Following streptozotocin-induced hyperglycemia, the treatment regimen was carried out for two weeks. Neem extract was suspended in 0.3% sodium carboxymethylcellulose (“CMC”) and administered at a dose of 50 mg/kg b.w., 100 mg/kg b.w., and 250 mg/kg b.w. orally for two weeks. Similarly, metformin was suspended in 0.3% CMC and administered at a dose of 250 mg/kg b.w. orally for two weeks. During the treatment schedule, body weight and food and water intake were monitored at regular intervals. […] The results were expressed in terms of mean±SEM (n=4, from each gender). The data were subjected to one-way ANOVA followed by Tukey's test using GraphPad Prism 4.0 software to establish statistical significance (*p<0.05, **p<0.01, ***p<0.001; ^# p<0.05, ^## p<0.01, ^### p<0.001).

[3] = tested on: streptozotocin-induced diabetic mice; assay: Fasting blood glucose in streptozotocin-induced diabetic mice (Study 1); conditions: for Blood sugar level (FBG): 250 mg/kg b.w. orally; for Effect on STZ-induced increased sugar level (FBG), words: Neem 50, Neem 100, Neem 250, Met 250, vs STZ-induced diabetic mice
Description: as §1
Following streptozotocin-induced hyperglycemia, the treatment regimen was carried out for two weeks. Neem extract was suspended in 0.3% sodium carboxymethylcellulose (“CMC”) and administered at a dose of 50 mg/kg b.w., 100 mg/kg b.w., and 250 mg/kg b.w. orally for two weeks. Similarly, metformin was suspended in 0.3% CMC and administered at a dose of 250 mg/kg b.w. orally for two weeks. During the treatment schedule, body weight and food and water intake were monitored at regular intervals. Fasting blood glucose (“FBG”), HbA1C, plasma cholesterol, and triglyceride levels were monitored every week for two weeks. The results were expressed in terms of mean±SEM (n=4, from each gender). The data were subjected to one-way ANOVA followed by Tukey's test using GraphPad Prism 4.0 software to establish statistical significance (*p<0.05, **p<0.01, ***p<0.001; ^# p<0.05, ^## p<0.01, ^### p<0.001).

[4] = tested on: streptozotocin-induced diabetic mice; assay: as above; conditions: 250 mg/kg b.w. orally, Week 3
[5] = STZ-induced diabetic female mice, Day 5 (Post-Induction)
[6] = STZ-induced diabetic female mice, Day 15 of treatment
[7] = STZ-induced diabetic female mice, Day 30 of treatment
[8] = STZ-induced diabetic female mice, Pre-Induction
[9] = STZ-induced diabetic male mice, Day 5 (Post-Induction)
[10] = STZ-induced diabetic male mice, Day 15 of treatment
[11] = STZ-induced diabetic male mice, Day 30 of treatment
[12] = STZ-induced diabetic male mice, Pre-Induction
[13] = STZ-induced diabetic female mice, Week 2
[14] = STZ-induced diabetic male mice, Week 2

Row | SMILES | Fasting blood glucose [1, 5] | Fasting blood glucose [1, 6] | Fasting blood glucose [1, 7] | Fasting blood glucose [1, 8] | Fasting blood glucose [1, 9] | Fasting blood glucose [1, 10] | Fasting blood glucose [1, 11] | Fasting blood glucose [1, 12] | Effect on STZ-induced increased sugar level (FBG), words ([1]; female mice) | Effect on STZ-induced increased sugar level (FBG), words ([1]; male mice) | further results
1 | O=c1oc2cc(O)ccc2c2ccc(O)cc12 [3,8-(OH)2-DBP, 3,8-dihydroxy-dibenzo-α-pyrone] | 253.2 ± 5.194*** mg % | 166 ± 2.623***^, ### mg % | 153.9 ± 9.953***^, ### mg % | 95.45 ± 12.67 mg % | 252.2 ± 1.780 mg % | 166 ± 5.276***^, ### mg % | 156.7 ± 10.75***^, ### mg % | 94.12 ± 7.811*** mg % | attenuated the STZ-induced increased sugar level | attenuated the STZ-induced increased sugar level | –
2 | O=c1oc2cc(O)ccc2c2ccccc12 [3-OH-DBP, 3-hydroxy-dibenzo-α-pyrone] | 251.6 ± 1.280*** mg % | 189.8 ± 2.690***^, ### mg % | 147.3 ± 15.21***^, ### mg % | 126.8 ± 3.848 mg % | 254.6 ± 1.575 mg % | 171 ± 6.586***^, ### mg % | 134.2 ± 3.381***^, ### mg % | 99.06 ± 14.73*** mg % | attenuated the STZ-induced increased sugar level | attenuated the STZ-induced increased sugar level | –
3 | CN(C)C(=N)N=C(N)N [Metformin, metformin] | – | – | – | – | – | – | – | – | – | – | HbA1C level [2, 13]: 5.53 ± 0.46%; HbA1C level ([2]; STZ-induced diabetic female mice, Week 3): 3.08 ± 0.58^## %; HbA1C level [2, 14]: 5.05 ± 0.51%; HbA1C level ([2]; STZ-induced diabetic male mice, Week 3): 4.40 ± 0.65^# %; Effect on STZ-induced increase in HbA1C level, words ([2]; male and female mice, Neem 50, Neem 100, Neem 250, Met 250, vs STZ-induced diabetic mice): attenuated the STZ-induced increased in HbA1C level; Blood sugar level (FBG) ([3]; STZ-induced diabetic female mice, Day 0): 119.2 ± 15.5 ^ mg %; Blood sugar level (FBG) ([3]; STZ-induced diabetic female mice, Week 1): 241.1 ± 22.19*** mg %; Blood sugar level (FBG) [3, 13]: 133.8 ± 9.04^## mg %; Blood sugar level (FBG) ([3]; STZ-induced diabetic male mice, Day 0): 117.3 ± 23.99 ^ mg %; Blood sugar level (FBG) ([3]; STZ-induced diabetic male mice, Week 1): 269.2 ± 25.37*** mg %; Blood sugar level (FBG) [3, 14]: 133.4 ± 7.96**^, # mg %; Effect on STZ-induced increased sugar level (FBG), words ([3]; female mice): attenuated the STZ-induced increased sugar level; Effect on STZ-induced increased sugar level (FBG), words ([3]; male mice): attenuated the STZ-induced increased sugar level; Blood sugar level (FBG) ([4]; STZ-induced diabetic female mice): 121.2 ± 8.192 mg %; Blood sugar level (FBG) ([4]; STZ-induced diabetic male mice): 136.2 ± 4.89 mg %
